Literature values in paper PMC4853309 (Protein expression and purification, 2015).

Biological target: NprR
Details: read-out: estimated binding affinity (KD); cited from earlier work

In the case of SKPDIVG [NprX7], the Kd is listed as roughly 50 nM.
